Test results published in patent US20230033285A1, “Protease Inhibitors for Treatment of Coronavirus Infections” (The Scripps Research Institute, priority 2021, published 2023).

test system: SARS-CoV-2; assay: microbe, parasite or virus in culture; type: cell-based; details: Severe acute respiratory syndrome coronavirus 2, HeLa-ACE2, 24 h, read-out: EC50, μM (Hela)

| Structure (SMILES) | EC50 [µM] |
| --- | --- |
| CC(C)C[C@H](NC(=O)C(=O)NC1CCCCC1)C(=O)N[C@@H](C[C@@H]1CCNC1=O)C(=O)CO [Compound 14, N^1-cyclohexyl-N^2-((S)-1-(((S)-4-hydroxy-3-oxo-1-((S)-2-oxopyrrolidin-3-yl)butan-2-yl)amino)-4-methyl-1-oxopentan-2-yl)oxalamide] | > 1 |

same assay, conditions: Severe acute respiratory syndrome coronavirus 2; HeLa-ACE2 cells infected with SARS-CoV-2, 24 h, immunofluorescence of infected cells; read-out: EC50, μM (Hela)

| Structure (SMILES) | EC50 [µM] |
| --- | --- |
| Cc1ccc(C2(NC(=O)C(=O)N[C@@H](CC(C)C)C(=O)N[C@@H](C[C@@H]3CCNC3=O)C(=O)CO)CC2)cc1 [Compound 23] | 0.5 to 1 |
| CC(C)(C)C[C@H](NC(=O)C(=O)Nc1cccc(C(F)(F)F)n1)C(=O)N[C@@H](C[C@@H]1CCCNC1=O)C(=O)CO [Compound 112] | 0.5 to 1 |
| O=C[C@H](C[C@@H]1CCNC1=O)NC(=O)[C@H](CC1CCCCC1)NC(=O)C(=O)Nc1ccccc1F [Compound 40, N^1-((S)-3-cyclohexyl-1-oxo-1-(((S)-1-oxo-3-((S)-2-oxopyrrolidin-3-yl)propan-2-yl)amino)propan-2-yl)-N^2-(2-fluorophenyl)oxalamide] | 0.05 to 0.2 |
| CC1(C[C@H](NC(=O)C(=O)NC23CC(F)(C2)C3)C(=O)N[C@@H](C[C@@H]2CCCNC2=O)C(=O)CO)CCC1 [Compound 111, N^1-(3-fluorobicyclo[1.1.1]pentan-1-yl)-N^2-((S)-1-(((S)-4-hydroxy-3-oxo-1-((S)-2-oxopiperidin-3-yl)butan-2-yl)amino)-3-(1-methylcyclobutyl)-1-oxopropan-2-yl)oxalamide] | 0.2 to 0.5 |
| CC(C)C[C@H](NC(=O)OCc1cccc(Cl)c1)C(=O)N[C@@H](C[C@@H]1CCNC1=O)C(=O)CO [Compound 122, 3-chlorobenzyl ((S)-1-(((S)-4-hydroxy-3-oxo-1-((S)-2-oxopyrrolidin-3-yl)butan-2-yl)amino)-4-methyl-1-oxopentan-2-yl)carbamate] | > 1 |
| CC(C)C[C@H](NC(=O)C(=O)NC(C)(C)C)C(=O)N[C@@H](C[C@@H]1CCCNC1=O)C(=O)CO [Compound 115, N^1-(tert-butyl)-N^2-((S)-1-(((S)-4-hydroxy-3-oxo-1-((S)-2-oxopiperidin-3-yl)butan-2-yl)amino)-4-methyl-1-oxopentan-2-yl)oxalamide] | > 1 |
| CC(C)(C)C[C@H](NC(=O)C(=O)Nc1cccc(OC(F)(F)F)c1)C(=O)N[C@@H](CC1CCCNC1=O)C(=O)CO (stereo partly shown) [Compound 95] | < 0.05 |
| O=C(Nc1ccccc1F)C(=O)N1C[C@@H]2CCC[C@@H]2[C@H]1C(=O)N[C@@H](C[C@@H]1CCCNC1=O)C(=O)CO [Compound 33, (1S,3aR,6aS)-2-(2-((2-fluorophenyl)amino)-2-oxoacetyl)-N-((S)-4-hydroxy-3-oxo-1-((S)-2-oxopiperidin-3-yl)butan-2-yl)octahydrocyclopenta[c]pyrrole-1-carboxamide] | 0.05 to 0.2 |
| N#C[C@H](C[C@@H]1CCNC1=O)NC(=O)[C@@H]1[C@H]2CCC[C@H]2CN1C(=O)C(=O)Nc1ccccc1F [Compound 62, (1S,3aR,6aS)-N-((S)-1-cyano-2-((S)-2-oxopyrrolidin-3-yl)ethyl)-2-(2-((2-fluorophenyl)amino)-2-oxoacetyl)octahydrocyclopenta[c] pyrrole-1-carboxamide] | > 1 |
| CC(C)(C)C[C@H](NC(=O)C(=O)Nc1ccccc1C(F)(F)F)C(=O)N[C@@H](CC1CCCNC1=O)C(=O)CO (stereo partly shown) [Compound 96] | < 0.05 |
| O=C(Nc1ccccc1F)C(=O)N[C@@H](CC1CC1)C(=O)N[C@@H](C[C@@H]1CCCNC1=O)C(=O)CO [Compound 90, N^1-((S)-3-cyclopropyl-1-(((S)-4-hydroxy-3-oxo-1-((S)-2-oxopiperidin-3-yl)butan-2-yl)amino)-1-oxopropan-2-yl)-N^2-(2-fluorophenyl)oxalamide] | < 0.05 |
| CC(C)(NC(=O)C(=O)N1C[C@@H]2CCC[C@@H]2[C@H]1C(=O)N[C@H](C=O)C[C@@H]1CCCNC1=O)C(F)(F)F [Compound 47, (1S,3aR,6aS)-2-(2-oxo-2-((1,1,1-trifluoro-2-methylpropan-2-yl)amino)acetyl)-N-((S)-1-oxo-3-((S)-2-oxopiperidin-3-yl)propan-2-yl)octahydrocyclopenta[c]pyrrole-1-carboxamide] | 0.5 to 1 |
| CC(C)CCC(=O)N1CC2(CC2)C[C@H]1C(=O)N[C@H](C#N)C[C@@H]1CCNC1=O [Compound 117, (S)-N-((S)-1-cyano-2-((S)-2-oxopyrrolidin-3-yl)ethyl)-5-(4-methylpentanoyl)-5-azaspiro[2.4]heptane-6-carboxamide] | > 1 |
| O=C(N[C@@H](CC1CC1)C(=O)N[C@@H](C[C@@H]1CCCNC1=O)C(=O)CO)C(=O)NC12CCC(F)(CC1)CC2 [Compound 110, N^1-((S)-3-cyclopropyl-1-(((S)-4-hydroxy-3-oxo-1-((S)-2-oxopiperidin-3-yl)butan-2-yl)amino)-1-oxopropan-2-yl)-N^2-(4-fluorobicyclo[2.2.2]octan-1-yl)oxalamide] | > 1 |
| CC(C)(C)C[C@H](NC(=O)C(=O)Nc1ccccc1C(C)(C)C)C(=O)N[C@@H](C[C@@H]1CCCNC1=O)C(=O)CO [Compound 100, N^1-(2-(tert-butyl)phenyl)-N^2-((S)-1-(((S)-4-hydroxy-3-oxo-1-((S)-2-oxopiperidin-3-yl)butan-2-yl)amino)-4,4-dimethyl-1-oxopentan-2-yl)oxalamide] | < 0.05 |
| CC(C)(C)NC(=O)C(=O)N1C[C@@H]2CCC[C@@H]2[C@H]1C(=O)N[C@@H](C[C@@H]1CCCNC1=O)C(=O)CO [Compound 32, (1S,3aR,6aS)-2-(2-(tert-butylamino)-2-oxoacetyl)-N-((S)-4-hydroxy-3-oxo-1-((S)-2-oxopiperidin-3-yl)butan-2-yl)octahydrocyclopenta[c]pyrrole-1-carboxamide] | 0.5 to 1 |
| CC(C)C[C@H](NC(=O)C(=O)Nc1ccccc1F)C(=O)N[C@@H](C[C@@H]1CCNC1=O)C(=O)COC(=O)C1CCC(N2CCCCC2)CC1 (stereo partly drawn) [Compound 5, (S)-3-((S)-2-(2-((2-fluorophenyl)amino)-2-oxoacetamido)-4-methylpentanamido)-2-oxo-4-((S)-2-oxopyrrolidin-3-yl)butyl 4-(piperidin-1-yl)cyclohexane-1-carboxylate] | 0.2 to 0.5 |
| N#C[C@H](C[C@@H]1CCCNC1=O)NC(=O)[C@@H]1[C@H]2CCC[C@H]2CN1C(=O)COc1ccc(Cl)cc1Cl [Compound 61, (1S,3aR,6aS)-N-((S)-1-cyano-2-((S)-2-oxopiperidin-3-yl)ethyl)-2-(2-(2,4-dichlorophenoxy)acetyl)octahydrocyclo-penta[c]pyrrole-1-carboxamide] | 0.5 to 1 |
| COc1cccc2[nH]c(C(=O)N[C@@H](CC(C)C)C(=O)N[C@@H](C[C@@H]3CCNC3=O)C(=O)COC(=O)C3CCN(C4CCCCC4)CC3)cc12 [Compound 123, (S)-3-((S)-2-(4-methoxy-1H-indole-2-carboxamido)-4-methylpentanamido)-2-oxo-4-((S)-2-oxopyrrolidin-3-yl)butyl 1-cyclohexylpiperidine-4-carboxylate] | 0.5 to 1 |
| N#C[C@H](C[C@@H]1CCCNC1=O)NC(=O)[C@@H]1[C@H]2CCC[C@H]2CN1C(=O)C(=O)Nc1ccccc1F [Compound 60, (1S,3aR,6aS)-N-((S)-1-cyano-2-((S)-2-oxopiperidin-3-yl)ethyl)-2-(2-((2-fluorophenyl)amino)-2-oxoacetyl)octahydrocyclopenta[c] pyrrole-1-carboxamide] | 0.5 to 1 |
| CC(C)C[C@H](NC(=O)C(=O)Nc1ccccc1)C(=O)N[C@H](C=O)C[C@@H]1CCNC1=O [Compound 37, N^1-((S)-4-methyl-1-oxo-1-(((S)-1-oxo-3-((S)-2-oxopyrrolidin-3-yl)propan-2-yl)amino)pentan-2-yl)-N^2-phenyloxalamide] | > 1 |
